Measured values taken from patent US20260355180A1, “COMPOSITIONS AND METHODS FOR SPLICEOSOME-TARGETED THERAPIES” (Institute for Cancer Research d/b/a The Research Institute …, priority 2022, published 2026).
Entries after “also recorded” stand apart in the source; their conditions may differ. Residues, ends and D or L forms follow the SMILES beside them. *: point of attachment. Cbz = O=C(OCc1ccccc1)*; CH2F = FC*

Columns and labels:
[1] = tested on: ZBP1 reconstituted MEF; experiment: Rescue of PlaB-mediated cell death by RIPK3 inhibitor; assay type: cell-based, mouse; conditions: 2.5 nM PlaB, 18 hours, with RIPK3 inhibitor
Method: FIG. 5A-5E: SF3B1 perturbation upregulates A-RNA and Z-nucleic acids in MEFs. (FIG. 5A) 5 nM of PlaB induces A-RNA and Z-Nucleic acids in ΔZBP1 MEF cells. (FIG. 5B) Quantification of A-RNA and Z-Nucleic acids. […] Plots of signal intensity are mean±SEM, two-tailed unpaired Student's t test *p<0.05, ***p<0.001, ****p<0.0001. 18 hours of PlaB treatment for IF, WB and rescue experiments. IF: 5 nM PlaB, WB and rescue experiments: 2.5 nM PlaB.
Since induction of Z-nAs can result in ZBP1-dependent necroptosis, we analyzed induction of necroptosis in necroptotic competent MEFs using spliceosome inhibition. […] We also determined that MEFs ΔZBP1, WT, and Flag-ZBP1 cells treated with PlaB began dying within 24hours after treatment. With MEF Flag-ZBP1 cells showing only 20% survival after 24 hours (FIG. 16).

[2] = tested on: H446 cells; experiment: Immunofluorescence of A-RNA (J2) and Z-NA (Z22), H446; assay type: cell-based, human; conditions: low dose
Description: FIG. 4A-4C: SF3B1 perturbation increases dsRNA and Z-nucleic acid levels in treated cells. […] (FIG. 4B) Quantification of A-RNA and Z-Nucleic acids. (FIG. 4C) Western blot showing induction of cleaved-PARP, pH2AX, and ZBP1, and the reduction of RIPK1 protein levels. Plots of signal intensity are mean±SEM, two-tailed unpaired Student's t test **p<0.01, ****p<0.0001.
Our observations led us to explore what caused the elevated IFN response. We used an immunofluorescence (IF) technique to determine if A-RNA was increased after PlaB treatment.

[3] = tested on: H446 cells; experiment: Restoration of cell survival by RIPK1 or caspase inhibition, H446; assay type: cell-based, human; conditions: H446 treated with PlaB plus inhibitor
Method: (§1) FIG. 8A-8B: Spliceosome Perturbation induces RIPK1-dependent apoptosis. (FIG. 8A) H82 and H446 cells were treated with PlaB, PlaB+Z-vad, PlaB+R3i, and PlaB+Z-Vad+R3i. H82 and H446 cells were treated with PlaB, PlaB+Z-vad, and PlaB+Necl.
(§2) In addition, our CRISPR-Cas9 KO of RIPK1 also rescues SCLC cell lines from PlaB induced toxicity.

[4] = tested on: H82 cells; experiment: Restoration of cell survival by RIPK1 or caspase inhibition, H82; assay type: cell-based; conditions: H82 treated with PlaB plus inhibitor
Method: as §1, §2

SMILES | rescue of PlaB-mediated cell death (necroptosis) [1] | accumulation of A-RNA ([2]; J2 antibody) | accumulation of Z-Nucleic acids ([2]; Z22 antibody) | cell survival [3] | cell survival [4]
Cc1cc(-c2cnc(N)c3c(-c4ccc5scnc5c4)csc23)n(C)n1 [GSK-843] | completely rescued; also recorded: successfully rescue |  |  |  | 
NS(=O)(=O)c1ccc(S(=O)(=O)Nc2cccc3c(Cl)c[nH]c23)cc1 [indisulam] |  | induces accumulation | induces accumulation |  | 
COC(=O)C[C@H](NC(=O)[C@H](C)NC(=O)[C@@H](NC(=O)OCc1ccccc1)C(C)C)C(=O)CF [Z-Vad FMK] (Cbz-Val-Ala-Asp(OMe)-CH2F) |  |  |  | significantly restore cell survival | significantly restore cell survival
CN1C(=O)C(Cc2c[nH]c3ccccc23)NC1=S (stereo not shown) [Nec-I, necrostatin I] |  |  |  | significantly restore cell survival | significantly restore cell survival
